From patent US7566453B2, “Methods for treating melanomas” (Chugai Seiyaku Kabushiki Kaisha, priority 1998, dated 2009) come the findings set out here.

Experiment [1] deals with KPMM2 cells. As for the experimental part: The effects of anti-human IL-6 receptor antibody on sensitivity of KPMM2 cells to chemotherapeutic agents used for treatment of myeloma such as adriamycin (ADR, manufactured by Kyowa Hakko), vincristine (VCR, manufactured by Sigma Chemical Co.), and melphalan (L-PAM, manufactured by Sigma Chemical Co.) were evaluated.
KPMM2 is a multiple myeloma cell line derived from the ascites of a human patient with myeloma (see Japanese Unexamined Patent Publication (Kokai) No. 7-236475). […] The growth activity of the cell was evaluated by incorporation of ^3H-labeled thymidine (manufactured by Amersham) into the cell.
The KPMM2 cells that had been maintained were washed thoroughly with a fresh medium (RPMI1640 medium supplemented with 20% FBS), and then were adjusted to 4×10^5/ml, which was dispensed in 50 μl aliquots in a 96-well flat-bottomed microtiter plate (manufactured by Falcon). Furthermore, a medium containing a recombinant human IL-6 (Asagoe, Y. et al., Bio/Technology (1988) 6, 806-809), anti-human IL-6 receptor antibody hPM-1 (see the above reference example 1 or International Patent Application WO 92-15759), and the above chemotherapeutic agents or a fresh medium as control were added to make 200 μl in each well.
The plate was incubated at 37° C. for 4 days under the humidified condition in the presence of 5% CO2. At four hours before the end of incubation, 10 μl of ^3H-labeled thymidine solution (100 μCi/ml) was added to each well, and then incubated for more 4 hours. At the end of incubation, the cells were collected onto the glass filter (manufactured by Printed Filtermat A, WALLAC) using a harvester (Micro 96 Harvester, manufactured by SKATRON Instruments). The radioactivity incorporated into the cells was measured by a microbeta (1450 MicroBeta, manufactured by WALLAC).
The activity of growth inhibition on KPMM2 was expressed using the effect by a chemotherapeutic agent alone as the control. Using the incorporation of ^3H-labeled thymidine into the cell for each experimental group in which a each concentration of a chemotherapeutic agent was added as 100, the amount of ^3H-labeled thymidine incorporated into the cell in an experimental group in which anti-human IL-6 receptor antibody was simultaneously added was compared as an index.

Experiment [2] relates to KPMM2, a human myeloma cell line. The experiment in a line: Human myeloma cell-implanted SCID mouse system (Example 2): survival, disease-free ratio, serum M protein. Particulars: for Survival period: mean ± standard error; for Life-elongation ratio* (%): 100 × (drug administration group/drug non-administration group); for None disease ratio: survival ratio without disease on day 120. Format: in vivo. From the text: For evaluation of antitumor activity, a xenograft model was used. Thus, KPMM2, a human myeloma cell line derived from ascites of a patient with multiple myeloma was implanted to a male SCID mouse (FOX CHASE C. B17/Icr-Scid Jcl, purchased from Nippon Klea) via the tail vein. At this time, the tumor cells grow in the bone marrow and come to produce myeloma protein (M protein) in the peripheral blood. Furthermore, this model system is very close to an actual clinical condition in that it develops major symptoms of multiple myeloma in humans such as bone disorders, elevated blood calcium, and the like.
Single cell suspension of myeloma cells for implantation was prepared by passing through a mesh the well minced KPMM2 cells that have been maintained in vivo. Cell density was adjusted to 3×10^7/ml, which was implanted at 0.2 ml per mouse via the tail vein ([…]). The day when the cells were implanted was set at day 0.
This was given to mice at 0.2 ml per animal via the tail vein on day 8 (1 mg per mouse).
Melphalan (L-PAM, manufactured by Sigma Chemical Co.) that was suspended at 0.3 or 0.1 mg/ml in 0.2% CMC (carboxymethylcellulose) solution in water was used. This was given orally at 0.1 ml per 10 g body weight of mouse (3 or 1 mg/kg weight) for 5 consecutive days starting on day 1.
The experiment was carried out on the following six groups: (1) the melphalan and antibody non-administration group; (2) the 1 mg/kg melphalan single-drug administration group; (3) the 3 mg/kg melphalan single-drug administration group; (4) antibody single-drug administration group; (5) the 1 mg/kg melphalan and antibody combined administration group; and (6) the 3 mg/kg melphalan and antibody combined administration group. Group 1 included 9 mice, whereas each of the other groups included 7 mice. Furthermore, tumor was not implanted on mice of the same lineage and purchased on the same day, which were used as negative control for M protein detection.
Indices of the drug efficacy included the survival period, the survival ratio without disease on day 120, and the amount of M protein on day 30. For analysis using a survival curve, a generalized Wilcoxon's test (SPSS for windows ver. 6, SPSS inc.) was used. A significance level of 5% or lower was considered to be significant.
Serum M protein was detected as human IgG using the ELISA method. First, mouse serum was dispensed into a 96-well micro plate that had previously been coated with anti-human IgG antiserum and was allowed to stand. Then alkaline phosphatase-conjugated […] was bound thereto, and SIGMA104 phosphatase substrate was added for color development, absorbance of which was read using a microplate reader. M protein content in the serum was calculated using the standard curve obtained from normal human IgG.

Where [3] appears, read: melphalan 1 mg/kg orally, 5 days from day 1, no antibody.
Where [4] appears, read: melphalan 3 mg/kg orally, 5 days from day 1, no antibody.
The mark [5] stands for this setting: hPM-1 1 mg per mouse via the tail vein on day 8, CMC control.

Where “and” joins values, the source holds several entries; their conditions need not be identical. Identical values can stand only once.

For `NC(Cc1ccc(N(CCCl)CCCl)cc1)C(=O)O` (centres unmarked) [melphalan], the “relationship of growth index with the concentration of chemotherapeutic agent” value in experiment [1] (fixed concentration of anti-human IL-6 receptor antibody, 0.1 or 1 ng/ml IL-6 (FIG. 1 to 6)) is “decreased with the increase in melphalan concentration”. The figures for the “life elongation effect as compared to the non-administration group” value in experiment [2] (1 mg/ml melphalan administration group (FIG. 7)) and in experiment [2] (3 mg/kg melphalan single-drug administration (FIG. 9)) were “no life elongation effect” and “significant life elongation effect”, respectively. Further, the Survival period in experiment [2] (melphalan 1 mg/kg orally, 5 consecutive days from day 1, no antibody) was determined as 47.3 ± 3.1; in experiment [2] (melphalan 3 mg/kg orally, 5 consecutive days from day 1, no antibody), 84.1 ± 9.1. Besides, the “Life-elongation ratio* (%)” value came to 101% in experiment [2] (setting [3]) and 175% in experiment [2] (setting [4]). Also, the None disease ratio is 0/7 in experiment [2] (setting [3]) and 2/7 in experiment [2] (setting [4]).
On to “hPM-1: reshaped human PM-1 antibody: CDRs of mouse anti-IL-6 receptor antibody PM-1 grafted to human antibody, produced in CHO cells”, for which the “growth index (3H-thymidine incorporation, chemotherapeutic agent alone = 100)” value in experiment [1] is 33.9 and 28.4. Also, the “life elongation effect as compared to the non-administration group” value in experiment [2] (antibody single-drug administration, 1 mg per mouse on day 8 (FIG. 7)) was “no life elongation effect”. Also, in experiment [2] (setting [5]), the “Life-elongation ratio* (%)” value is recorded as 118% and the Survival period was determined as 55.1 ± 5.2. Further, the None disease ratio in experiment [2] (hPM-1 1 mg per mouse on day 8, CMC control) is listed as 0/7.
